The target of test [1] is T1, CDK2 (Homo sapiens, UniProt P24941).
T1 construct: High-Throughput Measurement of Cellular Endogenous CDK2; endogenous in cells; host or cells: OVCAR3
Briefly: Inhibition of CDK2: phospho-Rb (S807/811) HTRF measurement in OVCAR3 cells. It is filed as cell-based. To be noted: 24 h compound treatment, read-out: pRb (nM), IC50 in pRB(S807/811) assay. How it is done: Phosphorylation of RB protein at S807/811 were measured using HTRF phospho-RB cellular kits (Cat #64RBS807PEG) from Cisbio.
On Day 1, OVCAR3 (dependent on CDK2) cells were seeded into 96-well tissue-culture treated plates at 20,000 cells/well in 200 μL and incubated overnight at 37° C. in CO2 atmosphere. On Day 2, the cells were treated with test compounds at concentrations from 0.3 to 10,000 nM using HP D300 digital dispenser. Twenty-four hours after compound treatment, cell culture media was removed by flicking the plate and tapping the plate against clean paper towel. Immediately 30 μL 1× lysis buffer was supplemented from the kit and the plate was incubated at room temperature on shaker for 30 min. After homogenization by pipetting up and down, 8 μL cell lysate from 96-well cell culture plate was transferred to 384-well small volume white detection plate. 2 μL premixed detection solution was added and the plate was covered with sealer. To prepare the detection solution, d2 conjugated-phospho-RB antibody and Eu-cryptate conjugated phosphor-RB antibody were diluted into detection buffer following manufacturer's instruction. Detection plates were incubated for 4 h at room temperature and read on ClarioStar (BMG Labtech) in TR-FRET mode (665 nM and 620 nM). The TR-FRET ratio (665 nM/620 nM) was plotted against the compound concentration and normalized to DMSO controls. Half maximal inhibition concentration (IC50) values are calculated with a four-parameter logistic fit using GraphPad Prism (version 8; La Jolla, CA).
In the table below, A indicates a IC50 of less than 0.1 μM; B indicates a IC50 of greater than or equal to 0.1 μM but less than 0.5 μM; C indicates a IC50 of greater than or equal to 0.5 μM but less than 1 μM; and D indicates a […] of greater than or equal to 1 μM but less than 10 μM.

Test [2] has as its target T1, CDK2. Briefly: CDK2 HTRF assay: cellular endogenous CDK2 level in OVCAR3 cells. To be noted: 24 hours compound treatment; for DC50: read-out: DC50 (half maximal degradation concentration of CDK2). It is filed as cell-based. On the procedure:
Effects of compounds on cellular CDK2 level can be monitored by a high-throughput HTRF assay or traditional Western Blot assay.
To determine half maximal degradation concentration (DC50) values of compounds, cellular CDK2 level was measured in 96-well format using HTRF total CDK2 cellular kit (Cat #64CDK2TPEG) from Cisbio.
On Day 1, OVCAR3 cells were seeded into 96-well tissue-culture treated plates at 20,000 cells/well in 200 μL and incubated overnight at 37° C. in CO2 atmosphere. On Day 2 cells were treated with compounds at concentration ranging from 0.3 to 10,000 nM using HP D300 digital dispenser. 24 hours after compound treatment, cell culture media was removed by flicking the plate and tapping the plate against clean paper towel. Immediately 30 μL 1× lysis buffer was supplemented from the kit and the plate was incubated at room temperature on shaker for 30 min. After homogenization by pipetting up and down, 8 μL cell lysate from 96-well cell culture plate was transferred to 384-well small volume white detection plate. 2 μL premixed detection solution was added and the plate was covered with sealer. To prepare the detection solution, d2 conjugated-CDK2 antibody and Eu-cryptate conjugated CDK2 antibody were diluted into detection buffer following manufacturer's instruction. Detection plates were incubated overnight at room temperature and read on ClarioStar (BMG Labtech) in TR-FRET mode (665 nM and 620 nM). The TR-FRET ratio (665 nM/620 nM) was plotted against the compound concentration and normalized to DMSO controls. Half maximal degradation concentration (DC50) values were calculated with a four-parameter logistic fit using GraphPad Prism (version 8; La Jolla, CA).
In the table below, A indicates a DC50 of less than 0.1 μM; B indicates a DC50 of greater than or equal to 0.1 μM but less than 0.5 μM; C indicates a DC50 of greater than or equal to 0.5 μM but less than 1 μM; and D indicates a DC50 of greater than or equal to 1 μM but less than 10 μM.
A general note: TR-FRET usually uses a lanthanide donor and a delayed reading to cut background.

For `Cn1cc(-c2nc(NC3CCN(S(=O)(=O)c4cccc(CN5CCC(c6ccc7c(N8CCC(=O)NC8=O)nn(C)c7c6)CC5)c4)CC3)ncc2C(F)(F)F)cn1` [Example 33, 1-(1-methyl-6-(1-(3-((4-((4-(1-methyl-1H-pyrazol-4-yl)-5-(trifluoromethyl)-pyrimidin-2-yl)amino)piperidin-1-yl)-sulfonyl)benzyl)piperidin-4-yl)-1H-indazol-3-yl)dihydropyrimidine-2,4(1H,3H)-dione], at CDK2 [1], the IC50 is below 100 nM. On CDK2 [2], the DC50 is below 100 nM.

Turning to `O=C1CCC(N2C(=O)c3cc(F)c(N4CCN(Cc5cccc(S(=O)(=O)N6CCC(Nc7nccc(-c8cnn(CC(F)(F)F)c8)n7)CC6)c5)CC4)cc3C2=O)C(=O)N1` (stereo not drawn) [Example 17, 2-(2,6-dioxopiperidin-3-yl)-5-fluoro-6-(4-(3-((4-((4-(1-(2,2,2-trifluoroethyl)-1H-pyrazol-4-yl)pyrimidin-2-yl)amino)-piperidin-1-yl)sulfonyl)benzyl)-piperazin-1-yl)isoindoline-1,3-dione], at CDK2 [1], the IC50 lay in the range of 1000 to 10000 nM. Besides, the “DC50 (half maximal degradation concentration of CDK2)” value on CDK2 [2] is “no curve”.

`Cn1nc(N2CCC(=O)NC2=O)c2ccc(C3CCN(Cc4cccc(S(=O)(=O)[C@H]5CC[C@H](Nc6ncc(C(F)(F)F)c(-c7cnn(CC(F)(F)F)c7)n6)CC5)c4)CC3)cc21` [Example 74, 1-(1-methyl-6-(1-(3-(((1r,4r)-4-((4-(1-(2,2,2-trifluoroethyl)-1H-pyrazol-4-yl)-5-(trifluoromethyl)pyrimidin-2-yl)-amino)cyclohexyl)sulfonyl)benzyl)-piperidin-4-yl)-1H-indazol-3-yl)dihydro-pyrimidine-2,4(1H,3H)-dione]: the IC50 on CDK2 [1] was below 100 nM. The DC50 on CDK2 [2] is below 100 nM.

Consider `O=C1CCN(c2ccc(N3CCN(Cc4cccc(S(=O)(=O)N5CCC(Nc6ncc(C(F)(F)F)c(-c7cnn(CC(F)(F)F)c7)n6)CC5)c4)CC3)c(F)c2)C(=O)N1` [Example 13, 1-(3-fluoro-4-(4-(3-((4-((4-(1-(2,2,2-trifluoroethyl)-1H-pyrazol-4-yl)-5-(trifluoromethyl)pyrimidin-2-yl)amino)-piperidin-1-yl)sulfonyl)benzyl)-piperazin-1-yl)phenyl)dihydro-pyrimidine-2,4(1H,3H)-dione], for which the IC50 on CDK2 [1] is below 100 nM. At CDK2 [2], the DC50 is below 100 nM.

For the compound `Cn1c(S(=O)(=O)N2CCC(Nc3ncc(C(F)(F)F)c(-c4cnn(CC(F)(F)F)c4)n3)CC2)cnc1CN1CCN(c2ccc(N3CCC(=O)NC3=O)cc2)CC1` [Example 26, 1-(4-(4-((1-methyl-5-((4-((4-(1-(2,2,2-trifluoroethyl)-1H-pyrazol-4-yl)-5-(trifluoromethyl)pyrimidin-2-yl)amino)-piperidin-1-yl)sulfonyl)-1H-imidazol-2-yl)methyl)piperazin-1-yl)phenyl)dihydro-pyrimidine-2,4(1H,3H)-dione], the IC50 on CDK2 [1] lay within 100 to 500 nM. The DC50 at CDK2 [2] was below 100 nM.

Turning to `O=C1CCC(N2C(=O)c3cc(F)c(N4CCN(Cc5cccc(S(=O)(=O)N6CCC(Nc7ncc(C(F)(F)F)c(-c8cnn(CC(F)F)c8)n7)CC6)c5)CC4)cc3C2=O)C(=O)N1` (stereo not drawn) [Example 22, 5-(4-(3-((4-((4-(1-(2,2-difluoroethyl)-1H-pyrazol-4-yl)-5-(trifluoromethyl)-pyrimidin-2-yl)amino)-piperidin-1-yl)sulfonyl)benzyl)piperazin-1-yl)-2-(2,6-dioxopiperidin-3-yl)-6-fluoroiso-indoline-1,3-dione], the IC50 on CDK2 [1] lay in the range of 100 to 500 nM. Further, the DC50 at CDK2 [2] is below 100 nM.

As to `Cn1nc(N2CCC(=O)NC2=O)c2ccc(C3CCN(Cc4cccc(S(=O)(=O)N5CC[C@H](Nc6ncc(C(F)(F)F)c(-c7cnn(CC(F)(F)F)c7)n6)[C@H](F)C5)c4)CC3)cc21` (racemic) [Example 6, Rac-1-(6-(1-(3-(((3R,4S)-3-fluoro-4-((4-(1-(2,2,2-trifluoroethyl)-1H-pyrazol-4-yl)-5-(trifluoromethyl)-pyrimidin-2-yl)amino)piperidin-1-yl)sulfonyl)-benzyl)piperidin-4-yl)-1-methyl-1H-indazol-3-yl)dihydro-pyrimidine-2,4(1H,3H)-dione], the IC50 on CDK2 [1] is below 100 nM. Besides, the DC50 at CDK2 [2] is below 100 nM.

As to `Cn1nc(N2CCC(=O)NC2=O)c2ccc(C3CCN(C(c4cccc(S(=O)(=O)N5CCC(Nc6ncc(C(F)(F)F)c(-c7cnn(CC(F)(F)F)c7)n6)CC5)c4)C(F)F)CC3)cc21` (stereo not drawn) [Example 84, 1-(6-(1-(2,2-difluoro-1-(3-((4-((4-(1-(2,2,2-trifluoroethyl)-1H-pyrazol-4-yl)-5-(trifluoromethyl)pyrimidin-2-yl)amino)-piperidin-1-yl)sulfonyl)-phenyl)ethyl)-piperidin-4-yl)-1-methyl-1H-indazol-3-yl)dihydropyrimidine-2,4(1H,3H)-dione], the IC50 on CDK2 [1] was below 100 nM. The DC50 at CDK2 [2] was below 100 nM.

On to `Cn1nc(N2CCC(=O)NC2=O)c2ccc(C3CCN(Cc4cccc(S(=O)(=O)N5CC[C@H](Nc6ncc(C(F)(F)F)c(-c7cnn(CC(C)(C)O)c7)n6)[C@H](F)C5)c4)CC3)cc21` (racemic) [Example 70, Rac-1-(6-(1-(3-(((3R,4S)-3-fluoro-4-((4-(1-(2-hydroxy-2-methylpropyl)-1H-pyrazol-4-yl)-5-(trifluoromethyl)-pyrimidin-2-yl)amino)piperidin-1-yl)-sulfonyl)benzyl)piperidin-4-yl)-1-methyl-1H-indazol-3-yl)dihydro-pyrimidine-2,4(1H,3H)-dione], for which the IC50 on CDK2 [1] was below 100 nM. At CDK2 [2], the DC50 is below 100 nM.

In the case of `O=C1CCC(N2C(=O)c3cc(F)c(N4CCN(Cc5cccc(S(=O)(=O)N6CCC(Nc7ncc(Cl)c(-c8cnn(CC(F)(F)F)c8)n7)CC6)c5)CC4)cc3C2=O)C(=O)N1` (stereo not drawn) [Example 9, 5-(4-(3-((4-((5-chloro-4-(1-(2,2,2-trifluoroethyl)-1H-pyrazol-4-yl)-pyrimidin-2-yl)amino)piperidin-1-yl)-sulfonyl)benzyl)piperazin-1-yl)-2-(2,6-dioxopiperidin-3-yl)-6-fluoro-isoindoline-1,3-dione], the IC50 on CDK2 [1] is 1000 to 10000 nM. In addition, the “DC50 (half maximal degradation concentration of CDK2)” value at CDK2 [2] was “no curve”.

Take `O=C1CCC(N2Cc3cc(N4CCN(Cc5cccc(S(=O)(=O)N6CCC(Nc7ncc(C(F)(F)F)c(-c8cnn(CC(F)(F)F)c8)n7)CC6)c5)CC4)c(F)cc3C2=O)C(=O)N1` (stereo not drawn) [Example 15, 3-(6-fluoro-1-oxo-5-(4-(3-((4-((4-(1-(2,2,2-trifluoroethyl)-1H-pyrazol-4-yl)-5-(trifluoromethyl)pyrimidin-2-yl)-amino)piperidin-1-yl)sulfonyl)benzyl)-piperazin-1-yl)isoindolin-2-yl)-piperidine-2,6-dione]: the IC50 on CDK2 [1] was below 100 nM. The DC50 on CDK2 [2] was below 100 nM.

On to `Cn1c(S(=O)(=O)N2CCC(Nc3ncc(C(F)(F)F)c(-c4cnn(CC(F)(F)F)c4)n3)CC2)cnc1CN1CCN(c2ccc3c(N4CCC(=O)NC4=O)nn(C)c3c2)CC1` [Example 69, 1-(1-methyl-6-(4-((1-methyl-5-((4-((4-(1-(2,2,2-trifluoroethyl)-1H-pyrazol-4-yl)-5-(trifluoromethyl)pyrimidin-2-yl)amino)-piperidin-1-yl)sulfonyl)-1H-imidazol-2-yl)methyl)piperazin-1-yl)-1H-indazol-3-yl)dihydropyrimidine-2,4(1H,3H)-dione], for which the IC50 at CDK2 [1] was below 100 nM. Moreover, the DC50 at CDK2 [2] is below 100 nM.
